Assay results taken from paper PMC12040169 (PLOS Biology, 2025).

Assay: in vitro
Details: human, hela cells, % viability

Row | Structure (SMILES) | viability at 28.5 h, 10 µM [%] | viability at 28.5 h, 10 µM (bulk resorufin, single well) [%]
1 | O=C(Nc1ccc2oc(-c3ccccc3)nc2c1)C1CCCO1 (stereo not drawn) [CBK107724] | 84.1 | 
2 | CCOc1cc(OCC)nc(Oc2ccc(C(=O)OC)cc2)n1 [CBK107733] | 87.2 | 
3 | Fc1ccc(OCCCN2CCC3(CC2)OCCc2c3[nH]c3ccccc23)cc1 [CBK107736] | 77 | 
4 | CNC(=O)CSc1nccnc1N1CCCC1 [CBK107748] | 93.6 | 
5 | Cc1ccc(Nc2cncc(-c3ccc(O)cc3)n2)cc1Cl [CBK107802] | 99.9 | 
6 | Oc1ccc(-c2cncc(Nc3ccc(Br)c(Cl)c3)n2)cc1 [CBK107806] | 89.4 | 
7 | CCC(=O)c1c(CC)n[nH]c1-c1c(Cl)cccc1Cl [CBK107819] | 96.1 | 
8 | COc1ccccc1NC(=O)c1[nH]nc(O)c1Cc1c(Cl)cccc1Cl [CBK107846] | 90.2 | 
9 | CC(C)Nc1nc2cc(Cl)c(Cl)cc2nc1SCCC(=O)O [CBK107860] | 96.1 | 
10 | O=C(O)CCSc1nccc(C(F)(F)F)n1 [CBK107864] | 87.5 | 
11 | O=C(O)CCSc1nc2ccccc2nc1C(F)(F)F [CBK107866] | 93.7 | 
12 | CC1(OCCCO)SC(NC2CCCCCC2)=NC1=O (stereo not drawn) [CBK107927] | 91.5 | 
13 | Oc1n[nH]c(-c2ccccc2Cl)c1Cc1c(Cl)cccc1Cl [CBK107935] | 84.1 | 
14 | Cc1ccc(C)c2[nH]c(=O)c(CN(CCN3CCOCC3)Cc3nnnn3C3CCCCC3)cc12 [CBK108116] | 85.3 | 
15 | COc1cc2cc(CN(Cc3cccnc3)C(=O)Nc3ccc(F)cc3)c(=O)[nH]c2cc1OC [CBK108193] | 93.3 | 
16 | CCc1cc2cc3c(cc2nc1SCC(=O)Nc1nc(C)c(C)s1)OCO3 [CBK108548] | 94.8 | 
17 | Cc1cccc2cc(CN(Cc3cccnc3)C(=O)Nc3ccccc3Cl)c(=O)[nH]c12 [CBK108869] | 97.9 | 
18 | Cc1ccc2cc(CN(Cc3ccc4c(c3)OCO4)Cc3nnnn3Cc3ccco3)c(=O)[nH]c2c1 [CBK108949] | 93.9 | 
19 | Cc1cc2cc(CN(CC3CCCO3)C(=O)C3CC3)c(Cl)nc2cc1C (stereo not drawn) [CBK109881] | 101 | 
20 | O=C1c2ccccc2CN1c1ccc(Cl)cc1Cl [CBK109908] | 95 | 
21 | COc1ccc2c(c1OC)C(=O)N1c3ccccc3COC21 (stereo not drawn) [CBK109960] | 103 | 
22 | O=C(O)c1cc(S(=O)(=O)Nc2ccccc2)ccc1O [CBK109969] | 83.2 | 
23 | COc1ccc(CCNC(=O)c2cccc(-c3ccc4c(c3)COC3(CCNCC3)O4)c2)cc1OC [CBK110024] |  | 116
24 | COc1cc(CNC(=O)c2cccc(-c3ccc4c(c3)COC3(CCNCC3)O4)c2)cc(OC)c1OC [CBK110087] |  | 87.8

Row | Structure (SMILES) | viability at 28.5 h, 10 µM [%] | viability at 28.5 h, 10 µM (bulk resorufin, single well) [%]
25 | CC(=O)OC(c1ccccc1)c1nc2ccccc2[nH]1 (stereo not drawn) [CBK110141] | 97.1 | 
26 | O=C(O)CSc1cccc([N+](=O)[O-])c1 [CBK110160] | 101 | 
27 | O=C(Nc1ccccc1Cl)C1CCCN1S(=O)(=O)c1ccc(F)cc1 (stereo not drawn) [CBK110161] | 89.1 | 
28 | Cc1ccc(NC(=O)C2CCCN2S(=O)(=O)c2ccc(F)cc2)cc1F (stereo not drawn) [CBK110164] | 91.6 | 
29 | CNS(=O)(=O)c1cc(C(=O)O)c(OC)cc1OC [CBK110325] | 84.6 | 
30 | COC(=O)c1cc(C(=O)CSc2nc(N)cc(O)n2)ccc1O [CBK110407] | 92.2 | 
31 | COc1ccc(OC)c(C(=O)c2coc3ccc(OCC(=O)O)cc23)c1 [CBK111288] | 91.8 | 
32 | O=C1/C(=C/c2c(NCCCn3ccnc3)nc3ccccn3c2=O)SC(=S)N1CC1CCCO1 (stereo not drawn) [CBK111310] | 99.3 | 
33 | CC1CCN(Cc2c(O)ccc3occ(C(=O)c4ccccc4)c23)CC1 [CBK111319] | 89.8 | 
34 | O=C(O)CSc1ccccc1[N+](=O)[O-] [CBK111324] | 86.8 | 
35 | CCS(=O)(=O)Nc1cc(C(F)(F)F)ccc1Cl [CBK111339] | 111 | 
36 | CCS(=O)(=O)Nc1cc([N+](=O)[O-])ccc1OC [CBK111343] | 97 | 
37 | CCS(=O)(=O)Nc1cc(Cl)ccc1C [CBK111350] | 79.1 | 
38 | Cc1ccc(NC(C(N)=O)c2c(C)[nH]c(=O)[nH]c2=O)cc1 (stereo not drawn) [CBK111355] | 98.4 | 
39 | Cc1ccc([N+](=O)[O-])cc1NS(=O)(=O)Cc1ccc(Cl)cc1 [CBK111359] | 71.8 | 
40 | CN1CCN(Cc2c(O)ccc3occ(C(=O)c4ccccc4)c23)CC1 [CBK111438] | 98.2 | 
41 | COc1ccc(SCC(=O)O)cc1 [CBK111455] | 93.7 | 
42 | CCc1nc2ccccc2n1CC(=O)O [CBK111477] | 101 | 
43 | O=C(O)CCn1c(C2CCCCC2)nc2ccccc21 [CBK111480] | 86.2 | 
44 | CC(OC(=O)C1CCCCC1)c1nc2ccccc2[nH]1 (stereo not drawn) [CBK111483] | 107 | 
45 | Cc1[nH]c(=O)[nH]c(=O)c1Cc1cccc2ccccc12 [CBK111494] | 92.8 | 
46 | COCCn1nnnc1C(c1cc2c(C)ccc(C)c2[nH]c1=O)N1CCN(C(=O)c2ccco2)CC1 (stereo not drawn) [CBK111563] | 98.6 | 
47 | O=C(NCc1cccnc1)c1ccc(-c2cccc(Cl)c2Cl)o1 [CBK112211] | 102 | 
48 | CCCc1[nH]n(CCc2ccccc2)c(=O)c1Cc1c(Cl)cccc1Cl [CBK112499] | 99.8 | 

Row | Structure (SMILES) | viability at 28.5 h, 10 µM [%] | viability at 28.5 h, 10 µM (bulk resorufin, single well) [%]
49 | Nc1nc2ccccc2cc1-c1cccs1 [CBK112549] | 100 | 
50 | O=C(Nc1ccc2c(c1)C1C=CCC1C(C(=O)O)N2)c1ccc(Cl)cc1Cl (stereo not drawn) [CBK112584] | 105 | 
51 | CCOC(=O)C1N(C)C(=O)C(Cc2c(Cl)cccc2Cl)=C(C)N1C (stereo not drawn) [CBK112643] | 94.4 | 
52 | COCCN1CCOC2(CCN(C(=O)c3ccc(C)cc3)CC2)C1c1ccccc1OC (stereo not drawn) [CBK112657C] | 100 | 
53 | CSc1ccc(-n2ncc(-c3cccc(C(F)(F)F)c3)n2)cc1 [CBK112666] | 93.6 | 
54 | N#Cc1ccc(-n2ncc(-c3cccc(C(F)(F)F)c3)n2)cc1 [CBK112675] | 90.9 | 
55 | Oc1ccc(-n2ncc(-c3cccc(C(F)(F)F)c3)n2)cc1 [CBK112677] | 99.9 | 
56 | COc1ccc(-n2ncc(-c3cccc(C(F)(F)F)c3)n2)cn1 [CBK112678] | 95.8 | 
57 | OCc1ccc(-n2ncc(-c3ccc(C(F)(F)F)cc3)n2)cc1 [CBK112696] | 94.6 | 
58 | CS(=O)(=O)c1ccc(-n2ncc(-c3ccc(C(F)(F)F)cc3)n2)cc1 [CBK112698] | 90 | 
59 | O=C(O)c1cccc(-n2ncc(-c3ccccc3C(F)(F)F)n2)c1 [CBK112721] | 98.1 | 
60 | CSc1ccc(-n2ncc(-c3ccc(F)cc3F)n2)cc1 [CBK112728] | 91.3 | 
61 | OCc1ccc(-n2ncc(-c3ccc(F)cc3F)n2)cc1 [CBK112731] | 97.3 | 
62 | Oc1ccc(-n2ncc(-c3ccc(F)cc3F)n2)cc1 [CBK112736] | 98 | 
63 | Fc1ccc(-c2cnn(-c3ccc(OC(F)(F)F)cc3)n2)c(F)c1 [CBK112740] | 99.1 | 
64 | COc1ccc(-c2cnn(-c3ccc(OC)cc3)n2)cc1 [CBK112745] | 106 | 
65 | COc1ccc(-c2cnn(-c3ccccc3CN(C)C)n2)cc1 [CBK112762] | 106 | 
66 | CSc1ccc(-n2ncc(-c3ccc(Cl)cc3)n2)cc1 [CBK112782] | 84 | 
67 | COc1ccc(-n2ncc(-c3cccnc3)n2)cn1 [CBK112827] | 96.7 | 
68 | Clc1ccc(-n2ncc(-c3ccsc3)n2)cc1Cl [CBK112843] | 96.3 | 
69 | CN(C)c1ccc(-n2ncc(-c3ccsc3)n2)cc1 [CBK112845] | 86.8 | 
70 | NC(=O)c1ccc(-n2ncc(-c3ccsc3)n2)cc1 [CBK112858] | 98.4 | 
71 | O=C(O)c1cccc(-n2ncc(-c3ccsc3)n2)c1 [CBK112859] | 100 | 
72 | c1cc(-c2cnn(-c3ccc4c(c3)CCO4)n2)cs1 [CBK112861] | 93.4 | 

Row | Structure (SMILES) | viability at 28.5 h, 10 µM [%] | viability at 28.5 h, 10 µM (bulk resorufin, single well) [%]
73 | COc1ccc(-n2ncc(CN(C)C)n2)cc1OC [CBK112862] | 101 | 
74 | CN(C)Cc1cnn(-c2ccc(Oc3ccccc3)cc2)n1 [CBK112865] | 100 | 
75 | CCOC(=O)c1cccc(-n2ncc(CN(C)C)n2)c1 [CBK112866] | 91.4 | 
76 | CN(C)Cc1ccccc1-n1ncc(CN2CCS(=O)(=O)CC2)n1 [CBK112877] | 107 | 
77 | CCOC(=O)c1cccc(-n2ncc(-c3ccc(F)cc3)n2)c1 [CBK112908] | 94.1 | 
78 | OCc1ccc(-n2ncc(-c3ccc(Br)cc3F)n2)cc1 [CBK112920] | 96.6 | 
79 | CN(C)Cc1ccccc1-n1ncc(-c2ccc(Br)cc2F)n1 [CBK112924] | 90.9 | 
80 | Fc1cc(Br)ccc1-c1cnn(-c2ccccc2)n1 [CBK112925] | 103 | 
81 | COc1ccc(-n2cc(-c3cccc(C(F)(F)F)c3)nn2)cc1OC [CBK112933] | 94.9 | 
82 | FC(F)(F)c1cccc(-c2cn(-c3ccsc3)nn2)c1 [CBK112937] | 88.5 | 
83 | CC(=O)Nc1cccc(-n2cc(-c3cccc(C(F)(F)F)c3)nn2)c1 [CBK112938] | 91.2 | 
84 | O=C(O)c1cccc(-n2cc(-c3cccc(C(F)(F)F)c3)nn2)c1 [CBK112949] | 114 | 
85 | CSc1ccc(-n2cc(-c3ccc(F)cc3F)nn2)cc1 [CBK112979] | 99.3 | 
86 | OCc1ccc(-n2cc(-c3ccc(F)cc3F)nn2)cc1 [CBK112982] | 89.2 | 
87 | Fc1ccc(-c2cn(-c3cncnc3)nn2)c(F)c1 [CBK112989] | 96.4 | 
88 | Cc1ccc(Cl)cc1-n1cc(-c2ccc(F)cc2F)nn1 [CBK112995] | 89.2 | 
89 | O=C(O)c1cccc(-n2cc(-c3ccc(F)cc3F)nn2)c1 [CBK112998] | 95.9 | 
90 | COc1ccc(-c2cn(-c3cc(Cl)ccc3C)nn2)cc1 [CBK113023] | 58.6 | 
91 | COc1ccc(-c2cn(-c3ccc4c(c3)CCO4)nn2)cc1 [CBK113027] | 88.5 | 
92 | CC(C)(C)c1ccc(-n2cc(-c3ccc(Cl)cc3)nn2)cc1 [CBK113031] | 102 | 
93 | FC(F)(F)c1cccc(-n2cc(-c3cccnc3)nn2)c1 [CBK113053] | 86 | 
